Experimental data: article PMC3210965 (Chemical research in toxicology, 2011)
pIC50: −log10 of the molar value. Converted amounts (≈) assume the structure as drawn. Where two headings read alike, the source gives them in different places.

What was measured:
[1] = biological target: T1, Gpx from bovine erythrocytes (Bos taurus, UniProt P00435); assay type: biochemical
T1 sequence (P00435 1-205): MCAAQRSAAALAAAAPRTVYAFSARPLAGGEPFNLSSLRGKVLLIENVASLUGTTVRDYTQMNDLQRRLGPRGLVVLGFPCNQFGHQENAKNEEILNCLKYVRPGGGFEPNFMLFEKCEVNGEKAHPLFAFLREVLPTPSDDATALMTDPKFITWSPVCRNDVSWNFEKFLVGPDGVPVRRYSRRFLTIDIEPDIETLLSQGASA

[2] = biological target: T2, TrxR activity in HeLa cells (Homo sapiens, UniProt Q16881); experiment: cell-based; settings: for inhibition of cellular TrxR activity: 12 h
T2 sequence (Q16881 1-499 isoform Q16881-5): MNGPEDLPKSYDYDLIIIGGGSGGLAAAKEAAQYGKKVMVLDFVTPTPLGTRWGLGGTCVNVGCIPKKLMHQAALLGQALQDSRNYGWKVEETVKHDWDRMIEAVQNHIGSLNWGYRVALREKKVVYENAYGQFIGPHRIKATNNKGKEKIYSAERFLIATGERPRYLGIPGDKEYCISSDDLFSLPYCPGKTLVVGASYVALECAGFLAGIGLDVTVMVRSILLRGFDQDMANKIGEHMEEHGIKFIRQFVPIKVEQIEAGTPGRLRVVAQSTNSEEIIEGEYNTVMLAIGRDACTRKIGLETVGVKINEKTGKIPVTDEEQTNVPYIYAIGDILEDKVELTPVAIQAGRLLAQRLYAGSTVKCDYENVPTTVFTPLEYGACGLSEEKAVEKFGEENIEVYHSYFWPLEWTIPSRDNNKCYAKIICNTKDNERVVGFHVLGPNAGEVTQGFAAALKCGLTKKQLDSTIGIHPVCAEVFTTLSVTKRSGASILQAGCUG

[3] = biological target: T3, rat TrxR (Rattus norvegicus, UniProt O89049); experiment: biochemical
T3 sequence (O89049 1-499): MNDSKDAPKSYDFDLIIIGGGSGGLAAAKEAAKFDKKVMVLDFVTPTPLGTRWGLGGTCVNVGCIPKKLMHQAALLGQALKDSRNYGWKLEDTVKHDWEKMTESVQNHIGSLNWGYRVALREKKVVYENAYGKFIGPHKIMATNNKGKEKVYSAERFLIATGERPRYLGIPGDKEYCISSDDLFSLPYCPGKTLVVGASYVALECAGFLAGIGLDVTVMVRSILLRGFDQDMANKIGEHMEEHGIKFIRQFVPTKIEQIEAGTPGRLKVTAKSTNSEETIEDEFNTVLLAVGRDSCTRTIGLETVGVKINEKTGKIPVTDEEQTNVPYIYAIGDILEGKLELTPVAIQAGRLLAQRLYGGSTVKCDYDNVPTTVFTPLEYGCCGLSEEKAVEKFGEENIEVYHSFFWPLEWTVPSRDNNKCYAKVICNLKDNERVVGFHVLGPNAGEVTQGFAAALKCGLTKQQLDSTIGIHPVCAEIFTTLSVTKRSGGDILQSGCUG

[4] = biological target: T4, TrxR C-terminus active site Sec and Cys (Rattus norvegicus, UniProt O89049)
T4 sequence (O89049 1-499): T3 sequence (O89049 1-499)

[5] = biological target: T3, rat TrxR
[6] = tested on: GR; settings: cited from earlier work
[7] = tested on: HeLa; settings: three day continuous treatment; cited from earlier work
[8] = tested on: TrxR; settings: cited from earlier work
[9] = tested on: HeLa cells; experiment: Cell viability MTS assay; assay type: cell-based, human; settings: 2 and 3 μM selenite
[10] = HeLa, read-out: inhibition of cellular TrxR activity

Work on `NC(=O)CI` [IAA, iodoacetamide] yielded a pIC50 ([1]; read-out: IC50, inhibition of Gpx activity) of 2.62.
`CC1=CC2=C(C)C3(CC3)[C@@](C)(O)C(=O)C2=C1` [AF, acylfulvene] showed an inhibition at 0.2 µM [2, 10] of 20%, an inhibition at 1 µM [2, 10] of 35% and an inhibition at 4 µM [2, 10] of 60%. The pIC50 [3] was 5.14, the inhibition at 50 µM ([3]; read-out: TrxR activity inhibited within five minutes) was greater than 60% and the “intensity of BIAM label” value ([4]; pH 6.5) was “diminished in intensity”. For the same compound, the BIAM labeling ([4]; pH 8.5) was “almost abolished”, the “reversibility of TrxR inhibition (gel filtration)” value [5] was “irreversible” and the “drug concentration at which an increase in Gpx activity was observed” value (from here on “drug concentration at which an increase”) [1] was no less than 20 µM.
For `CC1=C(CO)C2=C(C)C3(CC3)[C@@](C)(O)C(=O)C2=C1` [HMAF, hydroxymethylacylfulvene], the “type of GR inhibition” value [6] is listed as “irreversible”, the “inhibition of cellular TrxR activity” value ([2]; HeLa cells, 0.2 μM) is listed as 20% and the “inhibition of cellular TrxR activity” value ([2]; HeLa cells, 1 μM) is listed as 60%. The “inhibition of cellular TrxR activity” value ([2]; HeLa cells, 4 μM) was “eliminated cellular TrxR activity”, the “intensity of BIAM label” value ([4]; pH 6.5 (free Sec), 5 μM HMAF) was “diminished in intensity” and the BIAM labeling ([4]; pH 8.5 (free Cys and Sec), 25 μM HMAF) was “almost abolished”. The “IC50, cytotoxicity” value [7] was 0.02 µg/mL (≈ 0.0812 µM), the “TrxR activity inhibited within five minutes” value ([5]; 7.5 μM HMAF, pre-reduced TrxR, 25 °C) was “over 60%” and the “reversibility of TrxR inhibition (gel filtration)” value ([5]; 2 h reaction, unbound drug removed by size exclusion column) was “irreversible”. For the same compound, the pIC50 ([5]; read-out: IC50, inhibition of DTNB reduction activity of TrxR, NADPH-reduced TrxR (80 nM), 2 h at 25 °C) was 6.42 and the “drug concentration at which an increase” value [1] was no less than 2 µM.
In the case of `O=C(O)CCCc1ccc(N(CCCl)CCCl)cc1` [chlorambucil], the “IC50, TrxR inhibition” value [8] is listed as “micromolar”.
For `O=[Se]([O-])[O-].[Na+].[Na+]` [selenite, sodium selenite], the “cytotoxicity of added selenite (cells detached from culture dish)” value [9] was “caused cytotoxicity”.
In the case of `CC1=C2C(=C[C@@](C)(CO)[C@@H]2O)C(=O)[C@](C)(O)C12CC2` [illudin S, reference compound], the inhibition at 0.2 µM [2, 10] was 20%, the inhibition at 1 µM [2, 10] was 50% and the pIC50 [3] was 3.59. For the same compound, the “inhibition of TrxR without pre-reduction” value [5] was “no inhibition was observed”, the “drug concentration at which an increase” value [1] was no less than 1000 µM and the “effect on Gpx activity” value [1] was “none of the tested drugs caused a decrease in enzyme activity”.
With `C[S+]([O-])CCCCN=C=S` (stereo not shown) [sulforaphane, reference compound] the “effect in preliminary Se plus sulforaphane TrxR co-induction tests” value ([2]; HeLa cells, data not shown) was “potentially confounding direct inhibitory properties”.
In the case of `N[C@@H](Cc1ccc(N(CCCl)CCCl)cc1)C(=O)O` [melphalan], the “IC50, TrxR inhibition” value [8] is given as “micromolar”.
